The text below walks through data of patent publication US20160367497A1, “METHODS AND COMPOSITIONS FOR TREATING NEUROPATHIES” (Washington University, priority 2007, published 2016).

In one experiment the test system is neuro2A cells. Put plainly: neurite outgrowth in Neuro2a cells. Type of experiment: cell-based. To be noted: for effect on resveratrol-stimulated neurite outgrowth: resveratrol 10 μM, Compound C 10 μM, SIRT1 inhibitors, STO 609 2.5 μM or dnAMPK expression. On the procedure: FIG. 11A-D illustrates the resveratrol and AICAR stimulation of neurite outgrowth in Neuro2a cells. Neuro2a cells were switched to serum-starvation medium (medium containing 0.2% FCS) and treated with DMSO (vehicle control), resveratrol (10 μM) or AICAR (1 mM). (A) Serum deprivation of Neuro2a cells results in growth of short neurites that increase in length over 72 h. (B) Resveratrol induced rapid neurite outgrowth resulting in elaborate neurite network formation by 48 h. (C) AICAR stimulated extensive neurite outgrowth similar to that observed with resveratrol. (D).
FIG. 12A-M illustrates the dependency of resveratrol-induced neurite outgrowth and mitochondrial biogenesis on AMPK. Neuro2a cells were infected with lentivirus expressing GFP only (FUGW, control), dominant negative AMPK (dnAMPK) or constitutively active AMPK (caAMPK). Three days later cells were shifted to serum-starvation medium containing DMSO (control) or resveratrol (10 μM). In addition, uninfected Neuro2a cells in serum-starvation medium were treated with resveratrol alone, the AMPK inhibitor Compound C (CC, Biomol International L.P. (Plymouth Meeting, Pa.)) (10 μM) alone or with resveratrol and CC together. Images of the cultures captured in bright field and green fluorescence were overlaid to visualize neurite outgrowth. […] Neurite length in cells treated with caAMPK+resveratrol is also shown (G). […] Values were normalized to the 18S transcript. Data shown is representative of two independent experiments.
Cell culture and Reagents. Neuro2 cells obtained from ATCC were grown in MEM with 1.5 g/L sodium bicarbonate, 0.1 mM nonessential amino acids, 0.1 mM sodium pyruvate, 2 mM L-glutamine with 10% FCS. For differentiation, cells were switched to serum-starvation medium (containing 0.2% FCS). For neurite outgrowth measurements, experiments were done in quadruplicate and 100 neurites per well were randomly measured using the Metamorph software. Dorsal root ganglia sensory and cortical neurons were established from E13.5 mouse embryos, maintained in neurobasal medium supplemented with B27 (and NGF for DRG neurons) and infected with lentiviruses as described (Araki et al., 2004, Science 305:1010-1013; Hawley et al., 2005, Cell Metab 2:21-23). Resveratrol was a gift from Sirtris Pharmaceuticals (Cambridge Mass.) and AICAR was obtained from Toronto Research (North York, Canada). Splitomycin and Compound C were purchased from Biomol (Plymouth Meeting, Pa.) and Calbiochem (San Diego, Calif.). Sirtinol and nicotinamide were purchased from Sigma (Saint Louis, Mo.)
Neuro2a cells are a widely used as in vitro model of neuronal differentiation. These cells cease to proliferate and begin to differentiate, as evidenced by neurite outgrowth, in response to serum starvation, retinoic acid, or growth factors like neurotrophins and GDNF family ligands. […] Neuro2a cells grown under serum starvation conditions (0.2% fetal calf serum) were treated with AICAR (1 mM) or resveratrol (10 μM).
Since resveratrol activated AMPK and altered the differentiation of Neuro2a cells, we next asked whether AMPK activity was required for resveratrol-induced neurite outgrowth. To address this issue, we infected Neuro2a cells with lentivirus expressing either GFP alone (FUGW-control) or dominant negative AMPK (dnAMPK). After 3 days growth to allow robust lentiviral transgene expression, the medium was replaced with serum starvation medium. […] Resveratrol-induced neurite outgrowth was reduced in the presence of the AMPK pharmacological inhibitor Compound C (CC 10 μM) further supporting the importance of AMPK activity for resveratrol-induced neurite outgrowth.

Experiment [1] relates to DRG neuronal explant cultures. The experiment in a line: in vitro Wallerian degeneration assay, DRG explant neurite transection. The format is cell-based, mouse. How it is done: To identify the mechanism of delayed axonal degeneration mediated by the Wlds protein, we employed an in-vitro Wallerian degeneration model. Primary DRG explant neurons were infected with lentivirus expressing the appropriate proteins, and axons were injured by either removal of the neuronal cell body (transection) or growth in vincristine (toxic).
Mouse DRG explants from E12.5 embryos were cultured in the presence of 1 nM nerve growth factor. Non-neuronal cells were removed from the cultures by adding 5-fluorouracil to the culture medium. Transection of neurites was performed at 10-20 DIV using an 18-gauge needle to remove the neuronal cell bodies. Incubation with β-nicotinamide adenine dinucleotide (Sigma) or Sirtinol (Calbiochem) was performed using conditions indicated in the text or figures.
Quantitative analysis of axonal degeneration was performed as previously described (Zhai, et al., Neuron 39:217-25, 2003). Briefly, the cultures were examined using phase contrast microscopy at the indicated times. Axons with a fragmented, non-refractile appearance were designated as “degenerated.” At each time point, at least 200 singly distinguishable axons were blindly scored from several randomly taken images of each culture. Each condition was tested in triplicate explants in each experiment. Results were obtained from 2-4 independent experiments for each condition. Statistical analysis was performed by Student's T test. For calculations of neurite-covered area, digitally captured images from quadruplicate samples of two independent experiments were analyzed using analysis 3.1 software (Soft Imaging System, Lakewood, Colo.).
Cell culture, in vitro axotomy, and quantification of axonal degeneration. Mouse DRG explants from E12.5 embryos were cultured in the DMEM containing 10% FCS and 1 nM nerve growth factor. Non-neuronal cells were removed from the cultures by adding 5-fluorouracil to the culture media. Transection of neurites was performed at 14-21 DIV using an 18-gauge needle to remove the neuronal cell bodies. Lentiviral expression vectors were generated. Lentiviral infection was performed 3-7 days prior to axonal transection for 24 hr. Quantitative analysis of neurite degeneration was performed.

Take `CC(NC(=O)c1ccccc1/N=C/c1c(O)ccc2ccccc12)c1ccccc1` (centres unmarked) [Sirtinol]: in the experiment on neuro2A cells, the “effect on resveratrol-stimulated neurite outgrowth” value is reported as “had no effect”. In addition, the “effect on NAD-dependent axonal protection (NDAP)” value in experiment [1] (neurons cultured in 1 mM NAD, Sirtinol 100 μM, 3AB 20 mM or siRNA lentivirus, 12 to 72 hr after transection) was “effectively blocked NDAP”.

For `O=C(O)c1ccc2c3c1cccc3c(=O)n1c3ccccc3nc21` [STO 609], the “effect on resveratrol-stimulated neurite outgrowth” value with neuro2A cells was “had no effect”.

For the compound `NC(=O)c1cccnc1` [Nam, nicotinamide], the “effect on resveratrol-stimulated neurite outgrowth” value in the experiment on neuro2A cells was “had no effect”. For the same compound, in experiment [1] (1 mM applied for 24 hours before neurite transection), the “neurite protection after transection” value is reported as “had no effect”.

Regarding `Oc1ccc(C=Cc2cc(O)cc(O)c2)cc1` [resveratrol], the “neurite outgrowth compared to serum starvation alone” value with neuro2A cells (0.2% FCS, resveratrol 10 μM or AICAR 1 mM) was “increased neurite outgrowth”. Also, the “axonal degradation after axotomy” value in experiment [1] (10~100 μM, treated prior to axotomy) was “decrease in axonal degradation that was comparable to that obtained using NAD”.

Turning to `O=C1CCc2c(ccc3ccccc23)O1` [splitomycin], the “effect on resveratrol-stimulated neurite outgrowth” value with neuro2A cells is reported as “had no effect”.
